# Source: ChEMBL document CHEMBL1201862, “PubChem BioAssay data set” (2004)
# Activity calls are given as the source filed them.
# How the values were obtained:
# Leucine aminopeptidase = target: T1, Leucine aminopeptidase (Plasmodium falciparum 3D7, UniProt Q8IL11); assay: P. falciparum M17LAP inhibitors, primary screen, biochemical, fluorogenic H-Leu-NHMec substrate, 1536-well (AID 1619); format: functional
# T1 sequence (Q8IL11 whole entry): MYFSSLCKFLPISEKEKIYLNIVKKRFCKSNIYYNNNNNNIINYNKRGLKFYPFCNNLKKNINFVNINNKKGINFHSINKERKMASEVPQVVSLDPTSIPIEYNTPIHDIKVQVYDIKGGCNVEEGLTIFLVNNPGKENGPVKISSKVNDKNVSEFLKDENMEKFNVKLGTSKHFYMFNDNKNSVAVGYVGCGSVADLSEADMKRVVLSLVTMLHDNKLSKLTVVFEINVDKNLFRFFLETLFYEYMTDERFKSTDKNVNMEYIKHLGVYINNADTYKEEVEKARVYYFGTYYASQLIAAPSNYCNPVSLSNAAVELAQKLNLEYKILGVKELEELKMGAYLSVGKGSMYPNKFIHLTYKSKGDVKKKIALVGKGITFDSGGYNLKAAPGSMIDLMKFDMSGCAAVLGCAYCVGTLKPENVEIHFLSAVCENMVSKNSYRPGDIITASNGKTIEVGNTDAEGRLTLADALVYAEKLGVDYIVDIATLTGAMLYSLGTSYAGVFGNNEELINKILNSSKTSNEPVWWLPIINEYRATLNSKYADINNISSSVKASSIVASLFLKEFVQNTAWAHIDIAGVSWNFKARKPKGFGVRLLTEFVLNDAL
# [1] = target: T2, RNA-binding protein pos-1 (Caenorhabditis elegans, UniProt G5EF15); assay: disruptors of C. elegans POS-1 RNA interaction – biochemical, fluorescence polarization, dose response (AID 1964);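 note: purified POS-1 fused to maltose binding protein made in E. coli; potency of compounds blocking POS-1 binding to fluorescent RNA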
# T2 sequence (G5EF15 whole entry): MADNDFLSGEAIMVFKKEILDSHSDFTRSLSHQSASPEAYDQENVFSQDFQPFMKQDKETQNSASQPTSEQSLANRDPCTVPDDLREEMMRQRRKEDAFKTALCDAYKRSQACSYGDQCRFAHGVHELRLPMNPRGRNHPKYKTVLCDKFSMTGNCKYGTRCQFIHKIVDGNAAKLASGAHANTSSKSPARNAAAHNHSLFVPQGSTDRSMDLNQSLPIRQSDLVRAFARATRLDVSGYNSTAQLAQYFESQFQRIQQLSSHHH
# SUMO-activating enzyme [2] = target: T3, SUMO-activating enzyme (Homo sapiens, UniProt Q9UBT2); assay: blockers of UBC9-mediated SUMO conjugation – biochemical, AlphaScreen, SUMOylation inhibitor project, confirmation (AID 2018); format: functional
# T3 sequence (Q9UBE0 whole entry): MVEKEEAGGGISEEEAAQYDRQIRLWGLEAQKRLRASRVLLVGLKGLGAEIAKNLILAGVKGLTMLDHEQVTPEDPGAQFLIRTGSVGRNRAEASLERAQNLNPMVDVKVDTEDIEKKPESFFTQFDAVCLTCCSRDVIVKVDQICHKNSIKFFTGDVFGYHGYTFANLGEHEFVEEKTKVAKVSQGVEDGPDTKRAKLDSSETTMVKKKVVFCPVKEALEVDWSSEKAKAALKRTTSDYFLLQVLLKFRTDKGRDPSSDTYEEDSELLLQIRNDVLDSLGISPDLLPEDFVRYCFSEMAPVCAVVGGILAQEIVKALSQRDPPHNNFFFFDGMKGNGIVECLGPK
# T3 sequence (Q9UBT2 whole entry): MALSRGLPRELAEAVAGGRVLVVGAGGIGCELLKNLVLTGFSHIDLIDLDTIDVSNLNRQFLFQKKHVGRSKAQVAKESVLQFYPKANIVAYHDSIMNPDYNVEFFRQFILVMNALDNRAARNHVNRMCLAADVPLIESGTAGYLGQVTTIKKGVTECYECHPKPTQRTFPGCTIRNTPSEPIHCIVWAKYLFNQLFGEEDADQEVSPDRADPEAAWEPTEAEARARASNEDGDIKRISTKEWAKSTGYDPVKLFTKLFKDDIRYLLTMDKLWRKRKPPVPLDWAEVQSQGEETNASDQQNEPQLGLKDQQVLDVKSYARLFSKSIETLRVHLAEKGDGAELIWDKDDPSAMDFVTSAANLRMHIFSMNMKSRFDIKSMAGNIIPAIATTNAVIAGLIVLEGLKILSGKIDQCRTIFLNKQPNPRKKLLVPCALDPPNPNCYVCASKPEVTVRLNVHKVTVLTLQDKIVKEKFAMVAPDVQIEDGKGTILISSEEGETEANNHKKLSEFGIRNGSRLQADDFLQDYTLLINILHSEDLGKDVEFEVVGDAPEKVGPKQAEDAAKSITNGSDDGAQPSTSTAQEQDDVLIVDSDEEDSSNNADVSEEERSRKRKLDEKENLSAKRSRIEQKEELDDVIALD
# [3] = target: T4, Zinc finger protein mex-5 (Caenorhabditis elegans, UniProt Q9XUB2); assay: potency of MEX-5 RNA-binding blockers – biochemical, C. elegans, fluorescence polarization, dose response (AID 1960)
# T4 sequence (Q9XUB2 whole entry): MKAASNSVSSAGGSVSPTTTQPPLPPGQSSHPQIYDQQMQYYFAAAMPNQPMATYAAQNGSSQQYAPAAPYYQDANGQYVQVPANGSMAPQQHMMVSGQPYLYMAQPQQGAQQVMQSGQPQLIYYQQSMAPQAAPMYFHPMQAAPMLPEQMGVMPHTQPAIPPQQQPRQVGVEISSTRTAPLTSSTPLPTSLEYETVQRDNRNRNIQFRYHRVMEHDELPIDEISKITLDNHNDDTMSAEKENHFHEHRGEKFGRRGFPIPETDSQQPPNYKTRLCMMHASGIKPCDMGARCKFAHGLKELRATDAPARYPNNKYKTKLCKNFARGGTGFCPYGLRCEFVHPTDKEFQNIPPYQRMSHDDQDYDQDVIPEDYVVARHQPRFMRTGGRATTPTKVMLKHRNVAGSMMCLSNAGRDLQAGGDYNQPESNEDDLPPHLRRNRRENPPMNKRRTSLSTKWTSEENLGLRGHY
# Large T antigen = Large T antigen (Simian virus 40, UniProt P03070); format: functional, Betapolyomavirus macacae;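 note: Confirmatory-stage PubChem screen for compounds that inhibit SV40 T antigen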
# Large T antigen, sequence (P03070 whole entry): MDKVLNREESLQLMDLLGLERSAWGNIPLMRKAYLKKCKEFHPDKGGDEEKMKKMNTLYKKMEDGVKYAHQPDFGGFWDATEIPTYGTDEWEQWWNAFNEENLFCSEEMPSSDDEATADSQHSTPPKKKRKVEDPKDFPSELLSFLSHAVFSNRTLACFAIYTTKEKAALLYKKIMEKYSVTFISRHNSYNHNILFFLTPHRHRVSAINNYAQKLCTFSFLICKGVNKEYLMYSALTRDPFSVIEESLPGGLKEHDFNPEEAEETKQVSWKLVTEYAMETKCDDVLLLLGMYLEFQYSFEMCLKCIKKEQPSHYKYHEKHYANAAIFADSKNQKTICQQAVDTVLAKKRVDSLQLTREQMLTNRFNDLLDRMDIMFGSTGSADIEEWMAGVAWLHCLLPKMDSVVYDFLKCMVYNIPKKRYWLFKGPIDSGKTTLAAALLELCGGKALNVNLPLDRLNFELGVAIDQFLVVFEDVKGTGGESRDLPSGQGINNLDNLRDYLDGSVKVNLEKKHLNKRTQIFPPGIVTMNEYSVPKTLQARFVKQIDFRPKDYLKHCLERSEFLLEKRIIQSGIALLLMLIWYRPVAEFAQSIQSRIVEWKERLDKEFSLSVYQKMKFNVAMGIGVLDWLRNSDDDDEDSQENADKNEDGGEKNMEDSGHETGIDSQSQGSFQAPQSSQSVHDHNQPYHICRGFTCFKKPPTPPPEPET
# SUMO-activating enzyme [4] = target: T3, SUMO-activating enzyme; assay: blockers of SAE1/SAE2–UBC9 SUMO transfer – biochemical, HTRF, uHTS, primary screen (AID 2006); format: protein-complex assay
# [5] = target: T5, Induced myeloid leukemia cell differentiation protein Mcl-1 (Homo sapiens, UniProt Q07820); assay: blockers of MCL1 binding to BIM peptide – biochemical, fluorescence polarization, BIM-BH3 peptide, 1536-well, dose response (AID 2217)
# T5 sequence (Q07820 whole entry): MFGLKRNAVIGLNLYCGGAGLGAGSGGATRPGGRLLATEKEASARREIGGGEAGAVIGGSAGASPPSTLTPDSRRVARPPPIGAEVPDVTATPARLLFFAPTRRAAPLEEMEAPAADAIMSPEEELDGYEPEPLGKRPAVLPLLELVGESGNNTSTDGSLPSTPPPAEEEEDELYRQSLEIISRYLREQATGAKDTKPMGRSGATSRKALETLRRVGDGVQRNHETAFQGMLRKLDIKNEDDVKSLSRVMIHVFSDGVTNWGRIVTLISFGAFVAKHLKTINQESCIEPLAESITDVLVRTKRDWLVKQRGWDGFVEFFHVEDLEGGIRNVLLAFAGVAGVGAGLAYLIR
# Bcl-2-like protein 1 = Bcl-2-like protein 1 (Homo sapiens, UniProt Q07817); assay: blockers of BCLXL peptide binding – biochemical, fluorescence polarization, 1536-well, selectivity assay for MCL1 inhibitor project, dose response (AID 2218)
# [6] = target: T5, Induced myeloid leukemia cell differentiation protein Mcl-1; format: functional
# Nonstructural protein 1 = Nonstructural protein 1 (Influenza A virus, UniProt Q194T2); format: functional, Influenza A virus (A/California/07/2009(H1N1))
# Nonstructural protein 1, sequence (Q194T2 whole entry): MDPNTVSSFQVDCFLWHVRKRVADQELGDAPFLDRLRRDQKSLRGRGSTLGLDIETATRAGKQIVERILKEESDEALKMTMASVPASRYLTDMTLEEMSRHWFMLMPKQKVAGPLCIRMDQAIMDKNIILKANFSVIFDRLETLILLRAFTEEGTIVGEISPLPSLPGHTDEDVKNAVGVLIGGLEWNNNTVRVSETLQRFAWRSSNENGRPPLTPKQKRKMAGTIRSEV
# Cysteine protease ATG4B = target: T6, Cysteine protease ATG4B (Homo sapiens, UniProt Q9Y4P1); format: functional;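 note: Fluorescence-based dose-response confirmation assay measuring inhibition of ATG4B activity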
# T6 sequence (Q9Y4P1 whole entry): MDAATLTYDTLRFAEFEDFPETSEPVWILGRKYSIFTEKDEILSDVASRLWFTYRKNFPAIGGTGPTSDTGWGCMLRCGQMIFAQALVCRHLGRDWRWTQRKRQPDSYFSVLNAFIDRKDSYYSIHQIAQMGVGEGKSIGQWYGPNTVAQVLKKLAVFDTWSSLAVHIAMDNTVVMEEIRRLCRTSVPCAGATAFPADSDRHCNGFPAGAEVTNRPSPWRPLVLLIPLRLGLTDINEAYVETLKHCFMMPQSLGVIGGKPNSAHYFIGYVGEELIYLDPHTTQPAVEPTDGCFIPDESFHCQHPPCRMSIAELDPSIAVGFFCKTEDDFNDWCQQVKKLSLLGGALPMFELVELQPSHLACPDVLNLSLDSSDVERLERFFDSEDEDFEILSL
# Phospholipase A2 = Phospholipase A2 (Homo sapiens, UniProt P04054); format: functional;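 note: confirmatory dose-response counterscreen on phospholipase A2, testing hits that came from an ultra-high-throughput screen for ATG4B inhibitors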
# Phospholipase A2, sequence (P04054 whole entry): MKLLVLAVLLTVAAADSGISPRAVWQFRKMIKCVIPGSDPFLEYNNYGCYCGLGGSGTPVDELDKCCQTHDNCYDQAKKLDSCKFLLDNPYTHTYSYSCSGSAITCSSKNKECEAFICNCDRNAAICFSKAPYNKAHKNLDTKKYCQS
# Genome polyprotein = Genome polyprotein (dengue virus type 2, UniProt P29990); assay: flavivirus cap methylation enzyme inhibition – biochemical, confirmation dose response, primary screen (AID 588689); format: functional
# [7] = target: DNA (cytosine-5)-methyltransferase 1 (Homo sapiens, UniProt P26358); assay: inhibition of DNA methylation by DNMT1 – biochemical, fluorescent molecular beacon, confirmation (AID 602386); format: functional
# DNA (cytosine-5)-methyltransferase 1, sequence (P26358 whole entry): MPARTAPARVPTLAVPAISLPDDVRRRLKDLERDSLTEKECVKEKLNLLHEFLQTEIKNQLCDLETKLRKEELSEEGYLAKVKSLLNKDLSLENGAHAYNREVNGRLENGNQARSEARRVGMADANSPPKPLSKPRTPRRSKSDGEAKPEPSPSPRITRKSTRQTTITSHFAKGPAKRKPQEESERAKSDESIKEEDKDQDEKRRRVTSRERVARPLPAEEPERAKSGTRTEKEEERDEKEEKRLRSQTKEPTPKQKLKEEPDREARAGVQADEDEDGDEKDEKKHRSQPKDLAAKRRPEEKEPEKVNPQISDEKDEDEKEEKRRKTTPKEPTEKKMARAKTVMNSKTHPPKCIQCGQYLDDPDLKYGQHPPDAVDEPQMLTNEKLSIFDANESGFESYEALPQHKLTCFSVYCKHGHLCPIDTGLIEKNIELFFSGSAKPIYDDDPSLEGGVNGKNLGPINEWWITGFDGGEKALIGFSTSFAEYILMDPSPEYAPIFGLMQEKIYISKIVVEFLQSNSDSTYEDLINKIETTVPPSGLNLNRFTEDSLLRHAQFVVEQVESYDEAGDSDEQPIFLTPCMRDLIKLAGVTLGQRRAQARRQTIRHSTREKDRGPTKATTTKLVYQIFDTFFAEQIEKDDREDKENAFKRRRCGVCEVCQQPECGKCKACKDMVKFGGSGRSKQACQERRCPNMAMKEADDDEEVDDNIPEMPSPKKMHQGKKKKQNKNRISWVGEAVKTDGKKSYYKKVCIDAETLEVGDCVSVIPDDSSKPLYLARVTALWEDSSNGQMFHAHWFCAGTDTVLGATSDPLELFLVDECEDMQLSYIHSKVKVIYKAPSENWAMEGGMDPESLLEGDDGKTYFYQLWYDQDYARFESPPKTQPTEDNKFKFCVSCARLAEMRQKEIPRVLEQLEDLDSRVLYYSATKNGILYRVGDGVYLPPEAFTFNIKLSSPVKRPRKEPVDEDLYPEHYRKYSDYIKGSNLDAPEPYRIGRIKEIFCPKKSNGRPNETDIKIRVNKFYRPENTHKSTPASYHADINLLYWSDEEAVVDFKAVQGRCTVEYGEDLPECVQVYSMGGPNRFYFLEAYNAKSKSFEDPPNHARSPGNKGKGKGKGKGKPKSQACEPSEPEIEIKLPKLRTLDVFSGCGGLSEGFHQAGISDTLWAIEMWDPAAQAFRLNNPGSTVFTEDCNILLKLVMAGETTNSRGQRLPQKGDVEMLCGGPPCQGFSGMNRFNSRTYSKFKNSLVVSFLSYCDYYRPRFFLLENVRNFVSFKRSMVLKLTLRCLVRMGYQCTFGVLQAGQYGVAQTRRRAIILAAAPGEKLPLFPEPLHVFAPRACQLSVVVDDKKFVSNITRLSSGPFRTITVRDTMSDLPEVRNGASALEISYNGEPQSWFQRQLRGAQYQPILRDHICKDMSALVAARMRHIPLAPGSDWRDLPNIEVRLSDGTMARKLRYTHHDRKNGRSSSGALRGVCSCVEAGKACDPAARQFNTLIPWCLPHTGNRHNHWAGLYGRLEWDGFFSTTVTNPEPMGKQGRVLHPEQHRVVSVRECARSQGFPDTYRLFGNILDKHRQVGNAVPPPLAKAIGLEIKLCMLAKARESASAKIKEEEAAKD
# [8] = target: Protein disulfide-isomerase (Homo sapiens, UniProt P07237); assay: inhibition of PDI-driven insulin aggregation – biochemical, turbidity, absorbance, cherry-picked samples, dose response (AID 602350); format: functional
# Protein disulfide-isomerase, sequence (P07237 whole entry): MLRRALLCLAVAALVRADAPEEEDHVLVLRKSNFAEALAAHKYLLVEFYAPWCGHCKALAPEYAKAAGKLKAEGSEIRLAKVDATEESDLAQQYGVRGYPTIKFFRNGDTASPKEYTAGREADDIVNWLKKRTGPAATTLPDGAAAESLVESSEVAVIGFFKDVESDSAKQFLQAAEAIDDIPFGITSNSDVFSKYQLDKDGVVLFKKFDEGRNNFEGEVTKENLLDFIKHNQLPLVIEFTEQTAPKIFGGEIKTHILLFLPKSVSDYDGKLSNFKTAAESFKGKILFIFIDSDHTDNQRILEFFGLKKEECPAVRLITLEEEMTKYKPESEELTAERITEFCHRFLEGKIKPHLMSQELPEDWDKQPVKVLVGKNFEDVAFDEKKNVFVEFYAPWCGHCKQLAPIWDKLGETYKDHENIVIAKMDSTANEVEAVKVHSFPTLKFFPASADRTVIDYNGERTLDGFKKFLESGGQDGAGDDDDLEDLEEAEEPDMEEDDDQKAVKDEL
# BJ [9] = assay: BJ-TERT fibroblast viability loss – cell-based, RAS-independent, luminescence, dose response (AID 1933); format: functional; details: Homo sapiens
# BJ [10] = assay: cells; format: functional, cell-based; details: Homo sapiens
# [11] = Trypanosoma cruzi growth suppression in host cells – NIH3T3 host cells, beta-gal luminescence, confirmation (AID 2044); format: functional, cell-based;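 note: intracellular parasites grown in NIH/3T3 mouse fibroblasts as host cells; luminescent beta-galactosidase reporter signal from transgenic T. cruzi replicating inside host cells; inhibitors lower the luminescence signal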
# [12] = Luminescence-based dose response cell-based high throughput screening assay for cytotoxic compounds using the IEC-6 intestinal epithelial cell line. [Related pubchem assays: 1858 (Summary AID.), 1825 (Counterscreen.), 1907 (Confirmation screen.)]; format: functional
# [13] = NIH3T3 cell viability loss – ATP luminescence, mouse fibroblasts, counter-screen, dose response (AID 2010); format: functional, cell-based;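 note: cells exposed to compound for about 90 hours before reading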
# BJ [14] = assay: BJ-TERT-LT-ST fibroblast viability loss – cell-based, RAS-independent, luminescence, dose response (AID 1935); format: functional; details: Homo sapiens;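 note: BJ fibroblasts immortalized with TERT plus LT and ST oncogenes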
# [15] = DRD fibroblast viability loss – cell-based, non-viral oncogenic, luminescence, dose response (AID 1934); format: functional; details: Homo sapiens
# [16] = HEK-293T viability loss after treatment – luminescence, T-cell screen hits, cytotoxicity control for TCR NF-kB inhibitor project, dose response (AID 489026); format: functional, cell-based;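 note: cells exposed to compound about 14 hours before the viability readout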
# [17] = toxicity toward HEK293 cells – cell-based, dry powder samples, cytotoxicity control, dose response (AID 720567); format: functional
# [18] = Luminescence Cell-Based Dose Response to Identify Activators of 5'UTR Stem-Loop Driven Prion Protein mRNA Translation in H4-C Neuroglioblastoma Cells. [Related pubchem assays: 1829 (Project Summary), 1814 (Primary HTS)]; format: functional
# [19] = Luminescence Cell-Based Dose Response HTS to Identify Activators of Luciferase Translation or Activity in H4 […] Cells. [Related pubchem assays: 1829 (Project Summary), 1814 (Primary HTS)]; format: functional
# [20] = Luminescence Cell-Based Dose Response to Identify Activators of Luciferase Translation or Activity in H4-C Neuroglioblastoma Cells. [Related pubchem assays: 1829 (Project Summary), 1814 (Primary HTS)]; format: functional
# [21] = Luminescence Cell-Based Dose Confirmation to Identify Activators of 5'UTR Stem-Loop Driven Alpha-Synuclein mRNA Translation in H4 Neuroglioblastoma Cells. [Related pubchem assays: 1829 (Project Summary), 1814 (Primary HTS)]; format: functional
# [22] = target: Aryl hydrocarbon receptor (Homo sapiens, UniProt P35869); assay: Luminescence-based cell-based high throughput dose response assay for activators of the Aryl Hydrocarbon Receptor (AHR). [Related pubchem assays: 2796 (Primary screen (AHR activators in singlicate)), 2845 (Confirmation screen (AHR activators in triplicate)), 434939 (Counterscreen (PXR activators in triplicate)), 2804 (Summary (AHR activators))]; format: ADME
# [23] = target: T7, Oxysterols receptor LXR-beta (Homo sapiens, UniProt P55055); format: functional, cell-based;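 note: agonist activity at LXR measured by a cell-based luminescence readout across a dose range, run as a counterscreen for daf-12 agonists; HEK293 cells with Gal4-LXR fusion and GAL4-driven luciferase reporter; potency for activation of Gal4-LXR reporter so compounds are agonists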
# T7 sequence (P55055 whole entry): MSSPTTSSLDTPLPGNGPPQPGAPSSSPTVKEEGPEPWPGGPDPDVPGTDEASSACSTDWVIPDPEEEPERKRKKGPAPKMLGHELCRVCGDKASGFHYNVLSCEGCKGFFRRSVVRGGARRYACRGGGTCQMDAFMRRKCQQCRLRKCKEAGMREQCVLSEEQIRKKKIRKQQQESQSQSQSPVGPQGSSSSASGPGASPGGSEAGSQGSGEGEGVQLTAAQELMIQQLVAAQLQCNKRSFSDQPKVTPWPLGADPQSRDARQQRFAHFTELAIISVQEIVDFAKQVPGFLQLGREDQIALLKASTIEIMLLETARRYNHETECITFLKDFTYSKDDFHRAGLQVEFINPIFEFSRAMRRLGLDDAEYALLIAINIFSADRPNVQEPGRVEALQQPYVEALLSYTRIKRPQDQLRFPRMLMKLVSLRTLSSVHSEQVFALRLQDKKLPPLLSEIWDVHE
# Estrogen receptor = target: T8, Estrogen receptor (Homo sapiens, UniProt P03372); assay: ERα coactivator recruitment enhancers – biochemical, TR-FRET, ERα LBD, dose response (AID 737)
# T8 sequence (P03372 whole entry): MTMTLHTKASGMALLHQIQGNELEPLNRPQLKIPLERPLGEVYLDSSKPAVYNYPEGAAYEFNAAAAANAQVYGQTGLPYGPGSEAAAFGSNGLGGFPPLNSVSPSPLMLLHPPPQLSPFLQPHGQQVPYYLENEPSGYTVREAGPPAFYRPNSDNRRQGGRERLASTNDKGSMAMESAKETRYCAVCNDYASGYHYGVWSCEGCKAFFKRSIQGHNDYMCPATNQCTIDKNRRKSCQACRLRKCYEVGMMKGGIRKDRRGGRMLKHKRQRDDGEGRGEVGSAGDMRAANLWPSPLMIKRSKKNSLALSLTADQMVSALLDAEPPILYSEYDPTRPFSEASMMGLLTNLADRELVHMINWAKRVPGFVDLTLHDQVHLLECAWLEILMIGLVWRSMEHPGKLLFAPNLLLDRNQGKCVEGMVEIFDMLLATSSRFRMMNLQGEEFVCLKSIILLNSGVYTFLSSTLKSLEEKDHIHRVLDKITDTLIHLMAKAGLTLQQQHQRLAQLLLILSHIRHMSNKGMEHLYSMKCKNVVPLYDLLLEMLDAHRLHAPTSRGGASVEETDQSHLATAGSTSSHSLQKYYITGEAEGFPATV
# [24] = M. tuberculosis H37Rv growth inhibitors, H37Rv strain (AID 1626); format: functional
# [25] = target: Neuropeptide Y receptor type 1 (Homo sapiens, UniProt P25929); format: functional;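 note: HEK293 cells with a CNG channel challenged with NPY then isoproterenol; potency as antagonist that reverses NPY suppression of cAMP signal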
# Neuropeptide Y receptor type 1, sequence (P25929 whole entry): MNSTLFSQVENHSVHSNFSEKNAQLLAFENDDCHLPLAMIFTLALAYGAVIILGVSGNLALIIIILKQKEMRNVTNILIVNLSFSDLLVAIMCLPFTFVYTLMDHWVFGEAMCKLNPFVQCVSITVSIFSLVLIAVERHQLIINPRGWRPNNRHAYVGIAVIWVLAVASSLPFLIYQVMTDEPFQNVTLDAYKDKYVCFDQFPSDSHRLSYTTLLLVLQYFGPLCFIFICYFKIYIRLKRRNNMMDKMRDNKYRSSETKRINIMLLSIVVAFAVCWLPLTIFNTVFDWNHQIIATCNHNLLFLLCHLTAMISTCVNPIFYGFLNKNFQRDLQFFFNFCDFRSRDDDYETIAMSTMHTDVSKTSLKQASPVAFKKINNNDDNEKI
# [26] = target: Neuropeptide Y receptor type 2 (Homo sapiens, UniProt P49146); format: functional, cell-based;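 note: HEK293 cells expressing the receptor and a CNG channel; stimulus was NPY near EC95 followed by isoproterenol to raise cAMP; antagonist potency measured as restoring cAMP signal that NPY suppresses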
# [27] = restored growth of temperature-sensitive Burl-1 yeast – whole organism, S. cerevisiae, Burl-1 ts mutant, luminescence, counter-screen for SUMOylation pathway inhibitor project, dose response (AID 463199); format: functional
# H9c2 = assay: cells; format: functional, cell-based; details: Rattus norvegicus, H9c2, Myocardium;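 note: confirmatory concentration-response retest of ultra-high-throughput screening hits for modulation of myocardial damage; cell death induced by hydrogen peroxide oxidative stress; compound pretreatment for 60 min then peroxide exposure for 2 h; potency is for protecting the cells against peroxide damage rather than for killing them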
smiles,measurement,setting,value
COc1cccc(NS(=O)(=O)c2ccc3c(c2)C2C=CCC2C(c2ccc(C(=O)O)cc2)N3)c1 (stereo unspecified),IC50,Leucine aminopeptidase,15.8 µM (active)
same,EC50,[1],18 µM (inconclusive)
same,IC50,SUMO-activating enzyme [2],2.15 µM (active)
same,EC50,[3],12.5 µM (active)
same,IC50,Large T antigen,> 100 µM (active)
same,IC50,SUMO-activating enzyme [4],9.5 µM (active)
same,IC50,[5],18.9 µM (not active)
same,IC50,Bcl-2-like protein 1,64.9 µM (not active)
same,IC50,[6],2.32 µM (active)
same,IC50,Nonstructural protein 1,> 100 µM (active)
same,IC50,Cysteine protease ATG4B,10.7 µM (active)
same,IC50,Phospholipase A2,10.6 µM (active)
same,IC50,Genome polyprotein,67 µM (active)
same,IC50,[7],7.94 µM (active)
same,AC50,[8],15.8 µM (active)
CCn1c2ccccc2c2cc(NC(=O)c3cc(OC)c(OC)c(OC)c3)ccc21,EC50,BJ [9],0.184 µM (active)
same,EC50,BJ [10],0.745 µM (inconclusive)
same,EC50,[11],1 µM (active)
same,IC50,[12],0.534 µM (active)
same,EC50,[13],0.121 µM (active)
same,EC50,BJ [14],0.165 µM (inconclusive)
same,EC50,[15],0.284 µM (inconclusive)
same,IC50,[16],> 80 µM (inactive)
same,AC50,[17],25.6 µM (active)
O=c1sc(N2CCN(c3ccccc3F)CC2)nc2ccsc12,EC50,[18],0.309 µM (active)
same,EC50,[19],< 0.1 µM (inconclusive)
same,EC50,[20],0.349 µM (active)
same,EC50,[21],0.237 µM (active)
Cc1ccc(Nc2ncccc2C(N)=O)cc1,EC50,[22],1.36 µM (active)
same,EC50,[23],> 67.4 µM (inactive)
Cc1cc(C(=O)CSc2nnc(-c3ccccc3F)o2)c(C)n1Cc1cccs1,EC50,Estrogen receptor,6.97 µM (active)
O=C(Nc1nnc(-c2ccc3c(c2)OCCO3)o1)C1CCCCC1,IC50,[24],> 100 µM (active)
O=C(Nc1cccc(/N=C/c2cc(Br)cc(Br)c2O)c1)c1ccco1,IC50,[25],> 35 µM (not active)
same,IC50,[26],> 35 µM (not active)
same,AC50,[27],57.9 µM (active)
same,IC50,H9c2,10.8 µM (active)
